According to PubChem BioAssay AID2842 (Southern Research Institute, 2010):
Values after ≈ are worked out from the molar mass of the structure shown.

system: M. tuberculosis H37Rv growth inhibition; experiment: Mycobacterium tuberculosis H37Rv growth inhibition, putative kinase inhibitor library, confirmatory dose response (AID 2842);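 note: bacteria incubated one week before Alamar blue readout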

Row | Compound | IC90 [µg/mL]
1 | Cc1ccc(C(=O)Nc2nnc(C3=COCCO3)o2)cc1 | 2.78 (≈ 9.68 µM)
2 | CCOC(=O)c1ccc2nc(NC(=O)C(C)C)sc2c1 | 19.5 (≈ 66.5 µM)
3 | Cc1ccc(C(=O)Nc2nnc(-c3cc(C)ccc3C)o2)c(C)c1 | 7.29 (≈ 22.7 µM)
4 | COc1ccc(Nc2nc(Nc3cccc(OC)c3)nc3nccnc23)cc1 | 9.86 (≈ 26.3 µM)
5 | CCOc1cc(-c2nnc(NC(=O)C(C)C)o2)cc(OCC)c1OCC | 9.11 (≈ 25.1 µM)
6 | CN1CCc2c(sc(NC(=O)c3ccc(C(C)(C)C)cc3)c2C(N)=O)C1 | 12.7 (≈ 34.2 µM)
7 | CC(C)(C)C(=O)Nc1nnc(-c2ccc(Br)cc2)o1 | < 0.2
8 | Cc1ccc(C(=O)Nc2cccc(-c3ccc4nnc(C)n4n3)c2)cc1C | 12.9 (≈ 36 µM)
9 | Cc1ccc(C)c(-c2nnc(NC(=O)c3cccc(Br)c3)o2)c1 | 12.6 (≈ 33.9 µM)
10 | CCOC(=O)N1CCc2c(sc(NC(=O)c3ccco3)c2-c2nc3ccccc3s2)C1 | 50.2 (≈ 111 µM)
11 | COc1cccc2sc(N(CCCn3ccnc3)C(=O)c3ccc4c(c3)OCCO4)nc12 | 6.56 (≈ 14.6 µM)
12 | OCc1nc2ccccc2n1CC(O)COc1ccc(Br)cc1 (stereo unspecified) | 10.2 (≈ 27 µM)
13 | O=C(/C=C/c1ccccc1)Nc1nnc(-c2ccc3c(c2)CCCC3)o1 | 1.67 (≈ 4.83 µM)
14 | Cc1ccccc1C(=O)Nc1nnc(-c2ccccn2)o1 | 15.2 (≈ 54.2 µM)
15 | CCc1ccc(OCC(=O)Nc2ccc(OC)cc2)cc1 | 12.7 (≈ 44.3 µM)
16 | CC1CN(c2ncnc3c2c(-c2ccccc2)cn3-c2ccc(F)cc2)CC(C)O1 (stereo unspecified) | 42.4 (≈ 105 µM)
17 | Cc1ccccc1C(=O)N=Nc1c(O)[nH]c2ccc(Br)cc12 | 30.8 (≈ 85.9 µM)
18 | COc1ccc(-c2nc(N3CCCCC3)nc3n[nH]c(N)c23)cc1 | 12.9 (≈ 39.8 µM)
19 | CC(C)C(=O)Nc1nnc(-c2cc(Cl)ccc2Cl)o1 | 26.9 (≈ 89.5 µM)
20 | Fc1cccc2sc(Nc3nc(-c4cccs4)cs3)nc12 | 25.4 (≈ 76 µM)
21 | CC1(C)COCN1S(=O)(=O)c1ccc(C(=O)Nc2nnc(-c3ccc(F)cc3)o2)cc1 | 23.3 (≈ 52.1 µM)
22 | COc1cccc(C(=O)Nc2nnc(C3=COCCO3)o2)c1 | 4.85 (≈ 16 µM)
23 | O=C(Nc1nnc(-c2ccco2)o1)C1CCCCC1 | 50.4 (≈ 193 µM)
24 | O=C(Nc1cccc(Cl)c1)c1cccc2nc3ccccc3nc12 | 4.6 (≈ 13.8 µM)

Row | Compound | IC90 [µg/mL]
25 | O=C1N/C(=N/N=C/c2ccccc2O)SC1Cc1ccc(Cl)cc1Cl (stereo unspecified) | 1.32 (≈ 3.35 µM)
26 | O=C(OCn1nnc2ccccc2c1=O)c1ccccc1 | 1.41 (≈ 5.01 µM)
27 | Cc1nc2ccc(NC(=O)Nc3cccc(Cl)c3)cc2s1 | 22.3 (≈ 70.1 µM)
28 | Cc1cccn2c(=O)c3cc(C(=O)NC(C)c4ccccc4)c(=N)n(C4CCCCC4)c3nc12 (stereo unspecified) | 3.05 (≈ 6.7 µM)
29 | O=C(c1ccc(Nc2nc(-c3ccccc3)c3cc(Br)ccc3n2)cc1)N1CCCC1 | 21.1 (≈ 44.6 µM)
30 | Cc1ccc(C)c(-c2nnc(NC(=O)c3c(F)cccc3F)o2)c1 | 5.74 (≈ 17.4 µM)
31 | CC1CCc2c(sc(Nc3nc4ccc(F)cc4s3)c2C(N)=O)C1 (stereo unspecified) | 35.8 (≈ 99 µM)
32 | CC(=O)Nc1nnc(-c2cc(C)ccc2C)o1 | 20.2 (≈ 87.3 µM)
33 | Cc1cc(Nc2ccc(C)c(Cl)c2)n2ncc(-c3ccccc3)c2n1 | 3.35 (≈ 9.6 µM)
34 | COc1ccc2nc(N3CCCC3)sc2c1 | 8.36 (≈ 35.7 µM)
35 | O=C(COc1ccc2c3c(c(=O)oc2c1)CCCC3)OC1CCCCC1 | 9.71 (≈ 27.2 µM)
36 | O=C(Nc1nnc(-c2ccc(Cl)s2)o1)c1c(F)cccc1F | 3.8 (≈ 11.1 µM)
37 | Cc1sc2nc(SCC#N)[nH]c(=O)c2c1C | 17.3 (≈ 69 µM)
38 | COc1ccccc1Cn1cc2c(-c3ccccc3)nnc-2c2cc(OC)c(OC)cc21 | 7.59 (≈ 17.8 µM)
39 | CCOc1ccc(-c2nnc3c4cc5c(cc4n(Cc4cccc(OC)c4)cc2-3)OCCO5)cc1 | 3.52 (≈ 7.53 µM)
40 | O=C(Nc1ccc(Cl)c(Cl)c1)NC1CC(=O)N(c2cccc(F)c2)C1 (stereo unspecified) | 6.41 (≈ 16.8 µM)
41 | CC(C)(C)c1ccc(C(=O)N2CC(=O)Nc3ccc(Cl)cc3C2c2ccc(F)cc2)cc1 (stereo unspecified) | 9.95 (≈ 22.1 µM)
42 | Cc1ccc(C)c(-c2nnc(NC(=O)c3ccc(S(=O)(=O)N(C)C4CCCCC4)cc3)o2)c1 | 58.3 (≈ 124 µM)
43 | Cc1cccc(C(=O)Nc2nnc(-c3ccc(C)cc3C)o2)c1 | 9.06 (≈ 29.5 µM)
44 | O=C(CCc1ccccc1)Nc1nnc(-c2ccc(Cl)s2)o1 | 2.27 (≈ 6.8 µM)
45 | O=C(OCn1nnc2ccccc2c1=O)C(c1ccccc1)c1ccccc1 | 8.87 (≈ 23.9 µM)
46 | O=C(COc1ccc(Cl)cc1)NCCSc1ncc(-c2ccc(F)cc2)[nH]1 | 10 (≈ 24.6 µM)
47 | Cc1ccc2nc(NNC(=O)c3nc4ccccc4s3)sc2c1 | 6.73 (≈ 19.8 µM)
48 | OCc1cn(-c2ccccc2)nc1-c1ccc(F)cc1 | 6.38 (≈ 23.8 µM)

Row | Compound | IC90 [µg/mL]
49 | Cc1cc(Nc2ccc(C)c(C)c2)n2ncc(-c3ccccc3)c2n1 | 3.44 (≈ 10.5 µM)
50 | COc1cccc(C(=O)NNc2nc3c(C)cccc3s2)c1 | 11.6 (≈ 37.1 µM)
51 | O=C(c1ccco1)N(CCCn1ccnc1)c1nc2ccc(F)cc2s1 | 1.94 (≈ 5.24 µM)
52 | Cc1c(Cl)ccc2sc(N(CCCn3ccnc3)C(=O)/C=C/c3cccs3)nc12 | 0.24 (≈ 0.542 µM)
53 | O=C(CSc1nnc(-c2cccnc2)o1)N1CCC(Cc2ccccc2)CC1 | 0.87 (≈ 2.21 µM)
54 | O=C(CCc1ccccc1)Nc1nnc(-c2ccc3c(c2)CCCC3)o1 | 30 (≈ 86.2 µM)
55 | N#C/C(=C\Nc1ccccc1)c1nc2ccccc2[nH]1 | 3.25 (≈ 12.5 µM)
56 | CC(=O)c1ccc(C(=O)Nc2nnc(-c3ccc(Cl)cc3)o2)cc1 | 1.8 (≈ 5.27 µM)
57 | Cc1cc(C)c2nc(NNC(=O)c3nc4ccccc4s3)sc2c1 | 4.23 (≈ 11.9 µM)
58 | COc1cccc(C(=O)Nc2nnc(-c3ccc(Cl)cc3)o2)c1 | < 0.2
59 | Cc1ccc2sc(N(CCCn3ccnc3)C(=O)c3ccc(F)cc3)nc2c1C | 3.68 (≈ 9.01 µM)
60 | CCc1cccc2sc(N(CCCn3ccnc3)C(=O)c3cc(OC)cc(OC)c3)nc12 | 10.7 (≈ 23.7 µM)
61 | Cc1ccccc1C(=O)Nc1nnc(-c2ccco2)o1 | 1.69 (≈ 6.28 µM)
62 | Cc1ccc(C2CC(c3c(-c4ccccc4)c4cc(Cl)ccc4[nH]c3=O)=NO2)cc1 (stereo unspecified) | 12.4 (≈ 29.9 µM)
63 | C(=N\n1cnnc1)/c1ccc(-n2nc(-c3ccccc3)cc2-c2ccccc2)cc1 | 15.1 (≈ 38.7 µM)
64 | O=C(CCSc1ccccc1)Nc1nnc(-c2ccccc2)o1 | 12.9 (≈ 39.7 µM)
65 | Cc1ccc(-c2nnc(NC(=O)c3ccc(Cl)s3)o2)c(C)c1 | 2.01 (≈ 6.02 µM)
66 | CC(C)(C)c1csc(Nc2nc3c(F)cccc3s2)n1 | 6.52 (≈ 21.2 µM)
67 | COc1cccc2sc(Nc3nc4c(s3)CC(C)CC4)nc12 (stereo unspecified) | 5.79 (≈ 17.5 µM)
68 | CS(=O)(=O)NNc1ccc([N+](=O)[O-])cc1[N+](=O)[O-] | 11.6 (≈ 41.9 µM)
69 | COc1cccc(/C=N/Nc2nncc(=O)[nH]2)c1O | 0.43 (≈ 1.65 µM)
70 | Cc1ccc(-c2nnc(NC(=O)c3ccc(S(=O)(=O)N4CCC(C)CC4)cc3)o2)c(C)c1 | 46.7 (≈ 103 µM)
71 | COc1ccc(CC2S/C(=N/N=C/c3ccccc3O)NC2=O)cc1 (stereo unspecified) | < 0.2
72 | COC(=O)c1c(NC(=O)c2ccc3c(c2)CCCC3)sc2c1CCN(C(C)=O)C2 | 6.21 (≈ 15.1 µM)

Row | Compound | IC90 [µg/mL]
73 | Cc1cc(C)c2nc(NNC(=O)c3ccc(N(C)C)cc3)sc2c1 | 3.23 (≈ 9.49 µM)
74 | Cc1ccc2c(c1)c1nnc(-c3ccc4c(c3)OCO4)c-1cn2Cc1cccc(F)c1 | 3.39 (≈ 8.24 µM)
75 | COc1cc(OC)cc(C(=O)Nc2nnc(-c3ccc(Br)cc3)o2)c1 | 52.3 (≈ 129 µM)
76 | OCCOCCNc1nc(Nc2cccc(F)c2)nc2c1cnn2-c1ccccc1 | 4.91 (≈ 12 µM)
77 | Cc1ccc(-c2nnc(NC(=O)c3nc4ccccc4s3)o2)c(C)c1 | 1.76 (≈ 5.02 µM)
78 | Cc1ccc(C)c(-c2nnc(NC(=O)COc3ccccc3)o2)c1 | 2.24 (≈ 6.93 µM)
79 | CCCCC(=O)Nc1nc(-c2ccccc2)c(C(C)=O)s1 | 13.7 (≈ 45.4 µM)
80 | CCN(C1CCCCC1)S(=O)(=O)c1ccc(C(=O)Nc2nnc(-c3ccc(F)cc3)o2)cc1 | 5.64 (≈ 11.9 µM)
81 | Cc1nnc2ccc(-c3cccc(NC(=O)c4cccc(C(F)(F)F)c4)c3)nn12 | 22.6 (≈ 56.7 µM)
82 | CCCCn1c(N2CCN(Cc3ccc(Cl)c(Cl)c3)CC2)nc2c1c(=O)[nH]c(=O)n2C | 7.15 (≈ 15.4 µM)
83 | Cc1cc2cc(CNC(=O)C(=O)c3c[nH]c4ccccc34)ccc2[nH]1 | 8.44 (≈ 25.5 µM)
84 | CCN1C(=O)c2cccc3c(NC(=O)c4ccc(S(=O)(=O)N(C)C)cc4)ccc1c23 | 24.2 (≈ 57.2 µM)
85 | COC(=O)c1ccc(C(=O)NNc2nc3c(C)cc(C)cc3s2)cc1 | 6.49 (≈ 18.3 µM)
86 | COc1ccccc1C(=O)Nc1nnc(-c2ccccc2Cl)o1 | 3.23 (≈ 9.8 µM)
87 | Cc1ccc(CC(=O)N(CCCn2ccnc2)c2nc3ccccc3s2)c(C)c1 | 4.82 (≈ 11.9 µM)
88 | Cc1ccccc1C(=O)Nc1nnc(-c2ccc(F)cc2)o1 | < 0.2
89 | Cc1cc(C)c2nc(NNC(=O)c3ccc(F)cc3)sc2c1 | 3.98 (≈ 12.6 µM)
90 | O=C(Nc1nnc(-c2ccco2)o1)c1cccc(Oc2ccccc2)c1 | 3.31 (≈ 9.53 µM)
91 | CCC(=O)Nc1nnc(-c2ccc(OC)cc2)o1 | 4.39 (≈ 17.8 µM)
92 | COc1cc(-c2nnc(NC(=O)C(C)(C)C)o2)cc(OC)c1OC | 14.5 (≈ 43.1 µM)
93 | O=C(Nc1nnc(-c2cc(Cl)ccc2Cl)o1)c1ccc(Cl)cc1Cl | 0.74 (≈ 1.84 µM)
94 | CCc1ccc(Cc2cnc(NC(=O)c3c(C)coc3C)s2)cc1 | 7.42 (≈ 21.8 µM)
95 | CC1CCN(S(=O)(=O)c2ccc(C(=O)NNc3nc4c(Cl)cccc4s3)cc2)CC1 | 24.7 (≈ 53.1 µM)
96 | O=C(Nc1nnc(-c2ccncc2)o1)c1ccc(F)cc1 | 3.23 (≈ 11.4 µM)

Row | Compound | IC90 [µg/mL]
97 | COc1ccc(-c2noc(-c3cc(C(C)C)[nH]n3)n2)cc1 | 12.2 (≈ 42.8 µM)
98 | O=C(CSc1nc(-c2cccc(F)c2)[nH]c1-c1ccccc1)Nc1ccc2c(c1)OCO2 | 5.1 (≈ 11.4 µM)
99 | Cc1ccc(Cn2cc3c(-c4ccc(C)c(C)c4)nnc-3c3cc4c(cc32)OCCO4)cc1 | 11.5 (≈ 26.5 µM)
100 | COc1ccc2c(c1)c(=O)c(C(=O)c1ccc(Cl)cc1)cn2Cc1ccccc1 | 6.44 (≈ 15.9 µM)
101 | Cc1ccc(-c2nnc(NC(=O)Cc3ccccc3)o2)c(C)c1 | 14.8 (≈ 48.1 µM)
102 | Cc1nnsc1C(=O)Nc1ccc([N+](=O)[O-])cc1C(F)(F)F | 28.1 (≈ 84.5 µM)
103 | COC(=O)CSc1ncnc2c1nnn2Cc1ccc(F)cc1 | 1.55 (≈ 4.65 µM)
104 | CCS(=O)(=O)c1cccc(C(=O)Nc2nnc(-c3cc(C)ccc3C)o2)c1 | 9.12 (≈ 23.7 µM)
105 | Cc1ccc2c(c1)C(c1ccccc1)N(C(=O)c1ccc(-c3ccccc3)cc1)CC(=O)N2 (stereo unspecified) | 5.05 (≈ 11.7 µM)
106 | CSc1nc2ccc3nc(NC(=O)c4cc5ccccc5oc4=O)sc3c2s1 | 26.1 (≈ 61.3 µM)
107 | COc1cc(C2C3=C(CC(C)(C)CC3=O)Nc3ncnn32)ccc1OCc1ccc(Cl)c(Cl)c1 (stereo unspecified) | 6.77 (≈ 13.6 µM)
108 | O=C(Nc1nnc(-c2ccc3c(c2)CCCC3)o1)c1ccc(Cl)cc1Cl | 0.91 (≈ 2.34 µM)
109 | O=C(Nc1nnc(-c2ccco2)o1)C1=COCCO1 | 50.9 (≈ 193 µM)
110 | CCOC(=O)c1c(NC(=O)/C=C/C(N)=O)sc2c1CCCC2 | 6.76 (≈ 21 µM)
111 | N#Cc1ccc(C(=O)Nc2nnc(-c3ccc4c(c3)CCCC4)o2)cc1 | 1.71 (≈ 4.97 µM)
112 | O=C(Nc1nnc(-c2cccs2)o1)C1=COCCO1 | 6.18 (≈ 22.1 µM)
113 | Cc1ccc(-c2nnc(NC(=O)C(C)C)o2)c(C)c1 | 8.43 (≈ 32.5 µM)
114 | CSc1nnc(C)c(=O)n1COC(=O)c1ccc2ccccc2c1 | 3.38 (≈ 9.9 µM)
115 | CCCCOc1ccc(C(=O)Nc2nnc(-c3ccco3)o2)cc1 | 0.8 (≈ 2.44 µM)
116 | COc1ccc(C(=O)NNc2nc3cc(C)cc(C)c3s2)cc1 | 38.8 (≈ 118 µM)
